For the experiment, the system named is HIV broadly neutralizing antibody 2G12. Nature of the experiment: STD-NMR (Saturation Transfer Difference NMR) binding analysis with 2G12 IgG. As to conditions: for mannose unit showing greatest saturation transfer (STD): pH 6.7 deuterated phosphate buffered saline, saturation time 3 s; for recognition by neutralizing HIV antibody 2G12: summary in Discussion, contacts similar to natural oligomannose. On the procedure:
With these S-Man3 and S-Man4 derivatives in hand, their recognition by HIV broadly neutralizing antibody 2G12 was studied. 2G12 binds primarily to the linear trimannose (D1) arm of Man9GlcNAc2. […] The temperature was 298 K for S-Man3 14 and 293 K for S-Man4 21 in order to move the HDO peak to avoid covering an anomeric resonance. The experiments were performed without suppression of the residual HDO signal. On-resonance frequencies of 0.86 ppm δ (protein aliphatic) and 7 ppm δ (protein aromatic) were applied for S-Man3 14 and […] S-Man4 21, respectively, in both cases with a saturation time of 3 s and an off-resonance frequency of 40 ppm δ.
In the case of the Man4 derivative, negligible STD is observed for the reducing-terminal mannose unit.

The mark [1] stands for this setting: 25 μM 2G12 IgG, 200:1 sugar:antibody.

Results on two molecules are retold here after US20240182603A1, “SULFUR-S[…] TO STABILIZE OLIGOSACCHARIDE” (Brandeis University, priority 2021, published 2024).

`NCCO[C@H]1O[C@H](CO)[C@@H](O)[C@H](O)[C@@H]1S[C@H]1O[C@H](CO)[C@@H](O)[C@H](O)[C@@H]1O[C@H]1O[C@H](CO)[C@@H](O)[C@H](O)[C@@H]1O` [compound 14, 2-aminoethyl-[α-D-mannopyranosyl-(1→2)-2-S-{α-D-mannopyranosyl-(1→2)}]-α-D-mannopyranoside]: the “recognition by neutralizing HIV antibody 2G12” value is recorded as “recognized”. Besides, the “mannose unit showing greatest saturation transfer (STD)” value under setting [1] was “greatest saturation transfer is seen for the non-reducing mannose unit”.

`[N-]=[N+]=NC1CCC(O[C@@H]2OC(CO)[C@@H](O)[C@H](O[C@H]3OC(CO)[C@@H](O)[C@H](O)C3O[C@H]3OC(CO)[C@@H](O)[C@H](O)C3S[C@H]3OC(CO)[C@@H](O)[C@H](O)C3O)C2O)CC1` (stereo partly drawn) [compound 21, Trans-azidocyclohexyl-3-O-[{α-D-mannopyranosyl-(1→2)}-2-O-{α-D-mannopyranosyl-(1→2)}-2-S-{α-D-mannopyranosyl-(1→2)}]-β-D-mannopyranoside]: the “recognition by neutralizing HIV antibody 2G12” value was “recognized”. Moreover, the “STD observed for the reducing-terminal mannose unit” value (25 μM 2G12 IgG, 200:1 sugar:antibody, 293 K) is given as “negligible”. The “mannose unit showing greatest saturation transfer (STD)” value under setting [1] is given as “greatest saturation transfer is seen for the non-reducing mannose unit”.
